Reference: patent publication US20240156971A1, “METHODS AND SORTILIN BINDING CONJUGATE COMPOUNDS FOR TARGETING CANCER STEM CELLS” (TRANSFERT PLUS, SOCIÉTÉ EN COMMANDITE, priority 2021, published 2024)
Square brackets hold non-standard residues; d marks the D form. Ends that are not written are not given here. Nle = CCCC[C@H](N)C(=O)O

Key:
[1] = tested on: ovarian hOCSC xenografts; experiment: hOCSC xenografts treated with single agents or combined with carboplatin; assay type: in vivo, mice; conditions: for inhibition of tumor growth, single agent: docetaxel 10 mg/kg, TH1902 23 mg/kg, paclitaxel 10 mg/kg, carboplatin 40 mg/kg, day 18
Description: Mice bearing ovarian hOCSC xenografts were treated with vehicle, docetaxel, paclitaxel, TH1902 or carboplatin, and other groups of mice were administered carboplatin in combination with either docetaxel, paclitaxel or TH1902. To minimize the risk of side effects resulting from combining treatments, the dosages used for each drug were reduced to the following: docetaxel 10 mg/kg; TH1902 23 mg/kg (equivalent to the docetaxel dosage); paclitaxel 10 mg/kg; carboplatin 40 mg/kg (unchanged).

[2] = tested on: MDA-MB-231/luc cells; experiment: Cell cycle analysis (G2/M) of MDA-MB-231/luc cells; assay type: cell-based, human; conditions: MDA-MB-231 cells
Description: (§1) Cell Cycle Analysis Following Treatment of hBCSC by Test Articles. hBCSCs (2.8×10^5 cells/well) and MDA-MB-231/luc cells (2.3×10^5 cells/well) were seeded in 6-well plates one day prior to treatment. To test the effects of Docetaxel and TH1902 on cell cycle phases, hBCSCs and MDA-MB-231/luc cells were treated for 2 hours in serum-free media with vehicle (DMSO), 4 μM docetaxel or 2 μM TH1902 (equimolar of docetaxel), rinsed with complete media and incubated in fresh complete media for 22 and 48 hours. For the experiments with the P-gp inhibitors, hBCSCs were first pre-treated for 30 minutes in serum-free media with vehicle (DMSO), or 10 μM cyclosporine A or PSC-833 (P-gp inhibitors). Next, cells were treated for 2 hours with 4 μM docetaxel or 2 μM TH1902 in the continued presence or absence of the P-gp inhibitors before being rinsed and incubated in fresh complete media in the continued presence or absence of the P-gp inhibitors. Cells were then incubated for 22 and 48 hours. In both assays, following the incubation, cells were detached with trypsin, fixed with ice-cold 70% EtOH and kept overnight at 4° C. Cells were washed once with PBS, after which they were stained for 30 minutes at room temperature with FxCycle™ PI/RNase Staining Solution (Thermo Scientific, Waltham, MA; #F10797). Cells were finally subjected to cell cycle analysis using a BD Accuri™ C6 flow cytometer.

[3] = tested on: hBCSCs; experiment: hBCSC apoptosis by flow cytometry (annexin V-FITC/PI); assay type: cell-based, human; conditions: 2 h treatment, 4 μM docetaxel or 2 μM TH1902; 22 h, 48 h, 72 h post-treatment
Description: Assessment of hBCSC Apoptosis by Flow Cytometry. AnnexinV/PI staining was performed using an Apoptosis Detection Kit (BD Pharmingen, Mississauga ON) according to the manufacturer's instructions. Briefly, hBCSCs (1.3×10^5 cells/well) were seeded for 24 hours in 12-well plates. Cells were treated in serum-deprived medium for 2 hours with vehicle (DMSO), 4 μM Docetaxel or 2 μM TH1902. Cells were washed with complete medium and incubated in fresh complete medium for 22, 48, and 72 hours. Cells were finally harvested, resuspended in a staining solution of 100 μl of 1×binding buffer containing 5 μL of annexinV-FITC and 5 μL of PI. Cells were incubated for 15 minutes at room temperature in the dark before analysis by flow cytometry. The extent of apoptosis was measured, then analyzed using BD Accuri™ C6 software.

[4] = tested on: hBCSC xenografts; experiment: Growth of hBCSC xenografts in mice; assay type: in vivo; conditions: for growth of tumors originating from breast CSCs: weekly i.v., TH1902 at doses equivalent to 1, 1.25 or 1.5 the MTD of docetaxel, docetaxel 15 mg/kg (MTD)
Source text: (§2) In vivo Assessment of Docetaxel and TH1902 Anti-Tumor Efficacy. Tumor xenografts were established by subcutaneous inoculation of 10^3 hBCSC cells, hOvCSC and hPCSC resuspended in […] of HBSS containing 50% Matrigel™, into the right flank of NCG triple immunodeficient female mice (Charles River, Saint-Constant QC) under light isoflurane anesthesia. Three days following implantation of either hBCSC or hOvCSCS, mice commenced receiving weekly treatment by intravenous bolus injections of vehicle (10% polysorbate-80, 5% dextrose, 0.04% formic acid pH 4.3), docetaxel (15 mg/kg (the MTD for this agent) or 3.75 mg/kg (¼ MTD for this agent), dissolved in 5% dextrose, 3.3% ethanol, 1.7% Tween™-80) or TH1902 (35 mg/kg or 8.75 mg/kg) dissolved in vehicle. Note that the two TH1902 and docetaxel concentrations contain equimolar amounts of docetaxel due to the two docetaxel moieties per TH1902 molecule. Tumor growth was measured using two-dimensional measurements taken with an electronic caliper, and tumor volume was calculated according to the following formula: tumor volume (mm^3)=π/6×length×width^2. Animal weights were measured three times per week with a precision of 10 mg.

[5] = tested on: hOvCSC xenografts; experiment: Growth of hOvCSC xenografts in mice; assay type: in vivo; conditions: weekly i.v.; TH1902 at doses equivalent to 1, 1.25 or 1.5 the MTD of docetaxel; docetaxel 15 mg/kg (MTD)
Source text: as §2, with “[…])” for “1.7% Tween™-80) or TH1902 (35 mg/kg or 8.75 mg/kg)”, “Note that the two TH1902 and docetaxel concentrations contain equimolar amounts of docetaxel due to the two docetaxel moieties per TH1902 molecule.” left out

[6] = tested on: hBCSCs; experiment: Scratch (wound-healing) assay of hBCSC migration; assay type: cell-based, human; conditions: 2 h treatment, 2 μM docetaxel or 1 μM TH1902; images at 24 and 48 h
Description: Inhibition of hBCSC Migration by Test Articles. Cell migration experiments were carried out using the scratch (wound-healing) assay. Cells (2.8×10^5 cells /well) were plated in 6-well plates for 24 hours and then scratched using a sterile p200 pipette tip. Cells were washed with serum-free medium to remove the detached cells, then treated for 2 hours with serum-free medium containing vehicle (DMSO), 2 μM Docetaxel, or 1 μM TH1902. Cells were rinsed with complete media and incubated for 48 hours in a fresh complete media. Images were acquired, at 0, 24 and 48 hours after scratching, with an inverted microscope.

[7] = tested on: hBCSCs; experiment: Cell cycle analysis (G2/M) of hBCSCs; assay type: cell-based, human; conditions: 2 h with 4 μM docetaxel or 2 μM TH1902, then 22 h or 48 h
Description: as §1

In the case of “Acetyl-GVRAK(docetaxel)AGVRN(Nle)FK(docetaxel)SESY (Ac-GVRAK(docetaxel)AGVRN[Nle]FK(docetaxel)SESY) [TH1902]”, the “inhibition of tumor growth, single agent” value [1] is reported as “much greater than that of either taxanes”, the “inhibition of tumor growth, combined with carboplatin” value ([1]; plus carboplatin 40 mg/kg intraperitoneal, vs the agent alone) is reported as “slightly increased” and the “G2/M cell cycle arrest at 22 h” value [2] is reported as “some G2/M cell cycle arrest being detected at 22 h”. For the same compound, the total apoptosis [3] was “large increase in apoptosis”, the “tumor growth curve at 8.75 mg/kg TH1902 (eq. to 1/4 of docetaxel MTD)” value ([4]; hBCSC xenografts, weekly, FIG. 8A) was “virtual overlap between the 15 mg/kg docetaxel curve and the 8.75 mg/kg TH1902 curve” and the “growth of tumors originating from breast CSCs” value [4] was “significant inhibition of the growth of tumors”. For the same compound, the “growth of tumors originating from ovarian CSCs” value [5] was “significant inhibition of the growth of tumors”, the “recolonization of scratched region by hBCSCs (migration)” value [6] was “remained virtually barren of hBCSC for at least 48 hours” and the “G2/M cell cycle arrest” value [7] was “significant increase in G2/M cell cycle arrest”.
For CC(=O)O[C@@]12CO[C@@H]1C[C@H](O)[C@@]1(C)C(=O)[C@H](O)C3=C(C)[C@@H](OC(=O)[C@H](O)[C@@H](NC(=O)OC(C)(C)C)c4ccccc4)C[C@@](O)([C@@H](OC(=O)c4ccccc4)[C@H]21)C3(C)C [docetaxel, reference compound], the “inhibition of tumor growth, single agent” value [1] was “clearly inferior to that of TH1902”, the “G2/M cell cycle arrest at 22 h” value [2] was “not” and the total apoptosis [3] was “indistinguishable from that seen in control cells”. For the same compound, the “growth of tumors originating from breast CSCs” value [4] was “no significant reduction of tumor growth”, the “growth of tumors originating from ovarian CSCs” value [5] was “no significant reduction of tumor growth” and the “recolonization of scratched region by hBCSCs (migration)” value [6] was “completely recolonized”. For the same compound, the “G2/M cell cycle arrest” value [7] was “not”.
